Values quoted from earlier work, collected in US20200178572A1 (priority 2017, published 2020).

Settings: in vivo

CC1=CC[C@H]2C[C@@H]1C2(C)C [α-Pinene, (1S,5S)-2,6,6-Trimethylbicyclo[3.1.1]hept-2-ene]
human pulmonary uptake: 60%
